Test results: PubChem BioAssay AID248 (DTP/NCI, 2004)
Values joined by “and” are separate entries in the source; they are usually repeats but may differ in a detail not shown here. Identical values can stand only once. Inconclusive results and toxic doses are left out. No stated cut-off is given here; in the data, active means T/C of 150% or more; inactive means T/C below 125%.

Tested on: L1210 leukemia ip in BDF1 mice, survival T/C
Assay: NCI In Vivo Anticancer Drug Screen. Data for tumor model L1210 Leukemia (intraperitoneal) in B6D2F1 (BDF1) mice
Conditions: endpoint: mean survival time, higher = longer survival
Summary of the method: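 Tumor was transplanted into mice, which were then dosed with test compound or vehicle alone. Survival was recorded for each group, and the treated figure was expressed relative to the control figure.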

[1] = dose: 100.0 mg/kg/injection, schedule: Q01DX009 (ip), vehicle: saline
[2] = dose: 200.0 mg/kg/injection, schedule: Q01DX009 (ip), vehicle: saline
[3] = dose: 12.5 mg/kg/injection, schedule: Q01DX009 (ip), vehicle: Klucel (hydroxypropylcellulose) (HPC)
[4] = dose: 50.0 mg/kg/injection, schedule: Q04DX003 (ip), vehicle: Klucel (hydroxypropylcellulose) (HPC)
[5] = dose: 100.0 mg/kg/injection, schedule: Q01DX009 (ip), vehicle: Klucel (hydroxypropylcellulose) (HPC)
[6] = dose: 100.0 mg/kg/injection, schedule: Q04DX003 (ip), vehicle: Klucel (hydroxypropylcellulose) (HPC)
[7] = dose: 200.0 mg/kg/injection, schedule: Q01DX009 (ip), vehicle: Klucel (hydroxypropylcellulose) (HPC)
[8] = dose: 200.0 mg/kg/injection, schedule: Q04DX003 (ip), vehicle: Klucel (hydroxypropylcellulose) (HPC)
[9] = dose: 400.0 mg/kg/injection, schedule: Q01DX009 (ip), vehicle: Klucel (hydroxypropylcellulose) (HPC)
[10] = dose: 400.0 mg/kg/injection, schedule: Q04DX003 (ip), vehicle: Klucel (hydroxypropylcellulose) (HPC)
[11] = dose: 100.0 mg/kg/injection, schedule: Q01DX001 (ip), vehicle: other

Measured: T/C

OCc1nccn1Cc1ccccc1
inactive: dose: 25.0 mg/kg/injection, schedule: Q01DX009 (ip), vehicle: water 99 % of control | dose: 50.0 mg/kg/injection, schedule: Q01DX009 (ip), vehicle: water 100 % of control | [1] 97 % of control | dose: 100.0 mg/kg/injection, schedule: Q01DX009 (ip), vehicle: water 100 % of control | [2] 108 % of control | dose: 200.0 mg/kg/injection, schedule: Q01DX009 (ip), vehicle: water 106 % of control

CC1C(C)(C)P(=O)(c2ccccc2)C1(C)C (stereo not drawn)
inactive: dose: 12.5 mg/kg/injection, schedule: Q04DX003 (ip), vehicle: saline 96 % of control | dose: 25.0 mg/kg/injection, schedule: Q04DX003 (ip), vehicle: saline 96 % of control | dose: 50.0 mg/kg/injection, schedule: Q04DX003 (ip), vehicle: saline 105 % of control

COC1OC(C(O)CO)C(O)C(O)C1O (stereo not drawn)
inactive: dose: 100.0 mg/kg/injection, schedule: Q01DX009 (ip), vehicle: saline with Tween-80 110 % of control | dose: 200.0 mg/kg/injection, schedule: Q01DX009 (ip), vehicle: saline with Tween-80 100 % of control | dose: 400.0 mg/kg/injection, schedule: Q01DX009 (ip), vehicle: saline with Tween-80 104 % of control

C=CCOC(=O)Nc1cccc(OC(=O)NC)c1
inactive: dose: 100.0 mg/kg/injection, schedule: Q04DX003 (ip), vehicle: saline with Tween-80 105 % of control | dose: 200.0 mg/kg/injection, schedule: Q04DX003 (ip), vehicle: saline with Tween-80 105 % of control | dose: 400.0 mg/kg/injection, schedule: Q04DX003 (ip), vehicle: saline with Tween-80 100 % of control

CNC(=O)CCC(NS(=O)(=O)c1ccc(C)cc1)C(=O)O (stereo not drawn)
inactive: dose: 100.0 mg/kg/injection, schedule: Q01DX001 (ip), vehicle: saline with Tween-80 100 % of control | dose: 200.0 mg/kg/injection, schedule: Q01DX001 (ip), vehicle: saline with Tween-80 95 % of control | dose: 400.0 mg/kg/injection, schedule: Q01DX001 (ip), vehicle: saline with Tween-80 97 % of control

O=S1CCOCC1.O=S1CCOCC1.O=S1CCOCC1.O=S1CCOCC1.O=S1CCOCC1.O=S1CCOCC1.[Hg+2].[O-][Cl+3]([O-])([O-])O
inactive: dose: 3.0 mg/kg/injection, schedule: Q01DX009 (ip), vehicle: Klucel (hydroxypropylcellulose) (HPC) 93 % of control | dose: 6.0 mg/kg/injection, schedule: Q01DX009 (ip), vehicle: Klucel (hydroxypropylcellulose) (HPC) 92 % of control | [3] 98 % of control

CC(Cc1ccccc1)NC(=O)CCNNC(=O)c1ccncc1 (stereo not drawn)
inactive: [3] 96 % of control | dose: 25.0 mg/kg/injection, schedule: Q01DX009 (ip), vehicle: Klucel (hydroxypropylcellulose) (HPC) 100 % of control | dose: 50.0 mg/kg/injection, schedule: Q01DX009 (ip), vehicle: Klucel (hydroxypropylcellulose) (HPC) 103 % of control | [4] 98 % of control | [5] 100 % of control | [6] 96 % of control | [7] 91 % of control | [8] 88 % of control

c1ccc(Nc2nc3ccccc3o2)cc1
inactive: dose: 100.0 mg/kg/injection, schedule: Q01DX001 (ip), vehicle: Klucel (hydroxypropylcellulose) (HPC) 93 % of control | [5] 92 % of control | dose: 200.0 mg/kg/injection, schedule: Q01DX001 (ip), vehicle: Klucel (hydroxypropylcellulose) (HPC) 89 % of control | [7] 95 % of control | dose: 400.0 mg/kg/injection, schedule: Q01DX001 (ip), vehicle: Klucel (hydroxypropylcellulose) (HPC) 86 % of control | [9] 94 % of control

N#Cc1cccc2c(/C=N\NC(N)=S)nccc12
inactive: dose: 100.0 mg/kg/injection, schedule: Q04DX002 (ip), vehicle: Klucel (hydroxypropylcellulose) (HPC) 106 % of control | dose: 200.0 mg/kg/injection, schedule: Q04DX002 (ip), vehicle: Klucel (hydroxypropylcellulose) (HPC) 95 % of control | dose: 400.0 mg/kg/injection, schedule: Q04DX002 (ip), vehicle: Klucel (hydroxypropylcellulose) (HPC) 87 % of control

c1ccc([As](C[As](c2ccccc2)c2ccccc2)c2ccccc2)cc1
inactive: [4] 91 % of control | [6] 97 % of control | [8] 96 % of control | [10] 92 % of control

Cc1ccc(C)c(Cl)c1Cl
inactive: dose: 75.0 mg/kg/injection, schedule: Q01DX009 (ip), vehicle: saline sonified 98 % of control | dose: 100.0 mg/kg/injection, schedule: Q04DX003 (ip), vehicle: saline 103 % of control | dose: 150.0 mg/kg/injection, schedule: Q01DX009 (ip), vehicle: saline sonified 103 % of control | dose: 200.0 mg/kg/injection, schedule: Q04DX003 (ip), vehicle: saline 108 % of control | dose: 300.0 mg/kg/injection, schedule: Q01DX009 (ip), vehicle: saline sonified 99 % of control | dose: 400.0 mg/kg/injection, schedule: Q04DX003 (ip), vehicle: saline 103 % of control

CCCCCCCCCCCCCCCCCCNC(=S)N/N=C/c1ccc(Cl)cc1Cl
inactive: dose: 50.0 mg/kg/injection, schedule: Q04DX003 (ip), vehicle: other 91 % of control | [11] 95 % of control | dose: 100.0 mg/kg/injection, schedule: Q04DX003 (ip), vehicle: other 96 % of control | dose: 200.0 mg/kg/injection, schedule: Q01DX001 (ip), vehicle: other 86 % of control and 92 % of control | dose: 200.0 mg/kg/injection, schedule: Q04DX003 (ip), vehicle: other 93 % of control

O=C(O)C1OC(n2cc(I)c(=O)[nH]c2=O)CC1O (stereo not drawn)
inactive: dose: 100.0 mg/kg/injection, schedule: Q01DX001 (ip), vehicle: saline 107 % of control | dose: 200.0 mg/kg/injection, schedule: Q01DX001 (ip), vehicle: saline 103 % of control | dose: 400.0 mg/kg/injection, schedule: Q01DX001 (ip), vehicle: saline 100 % of control

CSc1nc(NC(=O)CCl)cc(NC(=O)CCl)n1
inactive: dose: 12.5 mg/kg/injection, schedule: Q01DX005 (ip), vehicle: saline 105 % of control | dose: 25.0 mg/kg/injection, schedule: Q01DX005 (ip), vehicle: saline 112 % of control

Cc1ccc(NC(=O)Nc2cccc3ccccc23)c(C)c1
inactive: [6] 91 % of control | [7] 88 % of control | [8] 95 % of control | [9] 92 % of control | [10] 91 % of control

COC(=O)c1nc[nH]c1N=[N+]=[N-]
inactive: [11] 97 % of control

CC(C)CNC(=O)Nc1ccccc1
inactive: dose: 75.0 mg/kg/injection, schedule: Q01DX001 (ip), vehicle: saline 97 % of control | dose: 150.0 mg/kg/injection, schedule: Q01DX001 (ip), vehicle: saline 95 % of control

CC1(C#N)CC(C#N)Nc2ccccc2N1 (stereo not drawn)
inactive: [1] 104 % of control | [2] 98 % of control

Cc1ccc(C(=O)/C(=C/c2ccccc2)c2ccccc2)cc1
inactive: [5] 101 % of control | [6] 96 % of control | [7] 97 % of control | [8] 93 % of control | [9] 88 % of control | [10] 96 % of control

CC(=O)Nc1ccc(S(=O)(=O)Oc2ccc([N+](=O)[O-])cc2)cc1
inactive: dose: 25.0 mg/kg/injection, schedule: Q01DX009 (ip), vehicle: saline 94 % of control | dose: 50.0 mg/kg/injection, schedule: Q01DX009 (ip), vehicle: saline 96 % of control | [1] 94 % of control | dose: 400.0 mg/kg/injection, schedule: Q01DX009 (ip), vehicle: saline 100 % of control
